From patent US20260297081A1, “COMPOUNDS AND METHODS OF TREATING CANCERS” (Cullgen Inc., priority 2023, published 2026) come the findings set out here.

In assay [1] the test system is Calu-1 cells. Description: Anti-proliferation (viability) of NSCLC Calu-1 cells, 3 days (Table 7, FIG. 2B). Conditions: Homo sapiens, 72 h; Calu-1 cells, 3 days, 10-point serial dilution; read-out: GI IC50 in Calu-1. It is filed as cell-based. The procedure:
To evaluate anti-proliferation activities of heterobifunctional compounds, NSCLC Calu-1 or ER+ breast cancer T47D cells were treated with selected heterobifunctional compounds following a 10-point serial dilution for 3 or 6 days, respectively.
To verify that heterobifunctional compound-mediated degradation is dependent on the binding to CDK4-cyclin D complex, a negative control compound, CPD-143, which is derived from active heterobifunctional compound CPD-10 was designed. CPD-143 bears the same DDB1 ligand and linker as CPD-10 but with a modified warhead to impair the binding of the control compound to CDK4.

Assay [2] deals with CDK4 (Homo sapiens, UniProt P11802+Q16531). Description: CDK4 percentage degradation in Calu-1 cells (Table 6). It is filed as cell-based. The conditions noted are these: 16 hours. Also on record: Cells that express cyclin D1-3 and CDK4/6 proteins were treated with heterobifunctional compounds; endogenous in cells; host or cells: Calu-1. Summed up: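 Calu-1 cells exposed to heterobifunctional compounds at 40 nM or 200 nM for 16 h. Cyclin D1 and CDK4 levels measured by Western blot of RIPA lysates (BCA-normalised loading), bands quantified by densitometry and expressed as percentage degradation.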
CDK4, sequence (P11802 2-303 limits assumed): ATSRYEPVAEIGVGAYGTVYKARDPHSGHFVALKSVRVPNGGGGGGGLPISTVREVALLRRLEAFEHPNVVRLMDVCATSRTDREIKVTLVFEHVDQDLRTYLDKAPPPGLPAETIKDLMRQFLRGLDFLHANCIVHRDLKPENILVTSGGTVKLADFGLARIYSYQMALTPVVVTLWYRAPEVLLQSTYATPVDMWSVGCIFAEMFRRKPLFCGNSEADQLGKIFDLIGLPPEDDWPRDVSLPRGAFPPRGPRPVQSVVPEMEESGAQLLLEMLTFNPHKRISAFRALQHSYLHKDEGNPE
CDK4, sequence (P24385 whole entry partner): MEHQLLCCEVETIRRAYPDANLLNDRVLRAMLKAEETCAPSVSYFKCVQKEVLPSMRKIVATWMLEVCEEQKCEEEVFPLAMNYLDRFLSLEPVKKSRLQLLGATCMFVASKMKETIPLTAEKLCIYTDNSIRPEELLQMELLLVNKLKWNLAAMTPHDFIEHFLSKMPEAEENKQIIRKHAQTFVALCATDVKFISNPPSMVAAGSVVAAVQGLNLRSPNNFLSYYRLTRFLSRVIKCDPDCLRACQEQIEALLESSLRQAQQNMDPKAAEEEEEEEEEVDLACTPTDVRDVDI
CDK4, sequence (Q16531 2-1140 limits assumed): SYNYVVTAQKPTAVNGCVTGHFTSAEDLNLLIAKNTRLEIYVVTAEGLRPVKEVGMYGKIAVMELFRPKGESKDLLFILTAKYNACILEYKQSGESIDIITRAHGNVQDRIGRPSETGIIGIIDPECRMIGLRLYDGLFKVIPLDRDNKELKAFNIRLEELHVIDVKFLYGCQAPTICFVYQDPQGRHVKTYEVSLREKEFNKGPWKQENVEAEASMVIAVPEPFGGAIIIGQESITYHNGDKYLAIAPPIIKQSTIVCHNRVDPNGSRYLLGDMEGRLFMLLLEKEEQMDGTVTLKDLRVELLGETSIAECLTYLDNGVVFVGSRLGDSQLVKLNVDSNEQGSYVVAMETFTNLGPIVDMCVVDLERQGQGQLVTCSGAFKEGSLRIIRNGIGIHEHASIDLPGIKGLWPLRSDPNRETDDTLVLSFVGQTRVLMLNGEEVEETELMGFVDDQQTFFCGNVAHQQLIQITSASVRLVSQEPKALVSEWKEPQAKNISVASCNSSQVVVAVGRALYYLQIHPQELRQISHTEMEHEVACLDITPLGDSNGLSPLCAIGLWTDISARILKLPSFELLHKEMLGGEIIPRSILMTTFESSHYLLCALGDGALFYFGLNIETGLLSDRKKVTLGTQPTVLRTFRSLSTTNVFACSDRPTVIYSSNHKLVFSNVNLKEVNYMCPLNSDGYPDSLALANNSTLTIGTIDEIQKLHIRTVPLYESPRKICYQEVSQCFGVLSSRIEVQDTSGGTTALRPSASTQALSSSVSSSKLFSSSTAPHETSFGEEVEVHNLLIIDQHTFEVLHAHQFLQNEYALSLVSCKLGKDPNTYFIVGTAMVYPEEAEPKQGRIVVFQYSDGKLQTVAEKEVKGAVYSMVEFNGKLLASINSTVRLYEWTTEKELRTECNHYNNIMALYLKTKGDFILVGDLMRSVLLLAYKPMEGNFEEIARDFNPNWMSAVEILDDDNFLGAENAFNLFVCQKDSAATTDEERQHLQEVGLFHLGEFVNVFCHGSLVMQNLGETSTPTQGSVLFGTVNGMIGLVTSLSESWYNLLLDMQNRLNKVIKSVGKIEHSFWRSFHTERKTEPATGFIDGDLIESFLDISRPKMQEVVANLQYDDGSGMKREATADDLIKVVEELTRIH

SMILES strings stand for the structures. A value given as a limit tells only on which side of the number the result lay.

The IC50 is the concentration that gives 50% inhibition. For orientation: inhibition means the percentage by which the read-out fell short of the control. `CNc1ccc(C(=O)Nc2ccn(C)n2)c(NC2CC3(C2)CN(C(=O)CCN2CCN(c4ccc(Nc5ncc6c(C)c(C(C)=O)c(=O)n(C7CCCC7)c6n5)nc4)CC2)C3)n1` [CPD-144, 2-((2-(3-(4-(6-((6-acetyl-8-cyclopentyl-5-methyl-7-oxo-7,8-dihydropyrido[2,3-d]pyrimidin-2-yl)amino)pyridin-3-yl)piperazin-1-y)propanoyl)-2-azaspiro[3.3]heptan-6-yl)amino)-N-(1-methyl-1H-pyrazol-3-yl)-6-(methylamino)nicotinamide]: the half-inhibitory concentration (IC50) in assay [1] lay in the range of 10 to 50 nM. In assay [2] (40 nM), this compound showed an inhibition at 0.04 µM of 50 to 80%. Also, the inhibition at 0.2 µM in assay [2] (200 nM) was greater than 80%. `[2H]C([2H])([2H])Nc1ccc(C(=O)Nc2ccc(N(C)C)nn2)c(N[C@H]2CC[C@H](C(=O)N3CCN(Cc4ccc(Nc5ncc6c(C)c(C(C)=O)c(=O)n(C7CCCC7)c6n5)nc4)CC3)CC2)n1` [CPD-495, 2-((4-(4-((6-((6-acetyl-8-cyclopentyl-5-methyl-7-oxo-7,8-dihydropyrido[2,3-d]pyrimidin-2-yl)amino)pyridin-3-yl)methyl)piperazine-1-carbonyl)cyclohexyl)amino)-N-(6-(dimethylamino)pyridazin-3-yl)-6-((methyl-d3)amino)nicotinamide]: the IC50 in assay [1] is no less than 50 nM. The same measure, in the same setting: the same measure for `CC(=O)c1c(C)c2cnc(Nc3ccc(CN4CCN(C5CCN(C(=O)[C@H]6CC[C@H](Nc7nc(NC(C)C)ccc7C(=O)Nc7ccc(N(C)C)nn7)CC6)C5)CC4)cn3)nc2n(C2CCCC2)c1=O` (some centres unmarked) [CPD-512, 2-((4-(3-(4-((6-((6-acetyl-8-cyclopentyl-5-methyl-7-oxo-7,8-dihydropyrido[2,3-d]pyrimidin-2-yl)amino)pyridin-3-yl)methyl)piperazin-1-yl)pyrrolidine-1-carbonyl)cyclohexyl)amino)-N-(6-(dimethylamino)pyridazin-3-yl)-6-(isopropylamino)nicotinamide]: 10 to 50 nM; for `[2H]C([2H])([2H])Nc1ccc(C(=O)Nc2cc3n(n2)CCC3)c(N[C@H]2CC[C@H](C(=O)N3CCC(N4CCN(c5ccc(Nc6ncc7c(C)c(C(C)=O)c(=O)n(C8CCCC8)c7n6)nc5)CC4)C3)CC2)n1` (stereo partly drawn) [CPD-521, 2-((trans-4-(3-(4-(6-((6-acetyl-8-cyclopentyl-5-methyl-7-oxo-7,8-dihydropyrido[2,3-d]pyrimidin-2-yl)amino)pyridin-3-yl)piperazin-1-yl)pyrrolidine-1-carbonyl)cyclohexyl)amino)-N-(5,6-dihydro-4H-pyrrolo[1,2-b]pyrazol-2-yl)-6-((methyl-d3)amino)nicotinamide]: 10 to 50 nM; for `[2H]C([2H])([2H])Nc1ccc(C(=O)Nc2ccc(N(C)C)nn2)c(NC2CCN(C(=O)CN3CC4(C3)CN(c3ccc(Nc5ncc6c(C)c(C(C)=O)c(=O)n(C7CCCC7)c6n5)nc3)C4)CC2)n1` [CPD-490, 2-((1-(2-(6-(6-((6-acetyl-8-cyclopentyl-5-methyl-7-oxo-7,8-dihydropyrido[2,3-d]pyrimidin-2-yl)amino)pyridin-3-yl)-2,6-diazaspiro[3.3]heptan-2-yl)acetyl)piperidin-4-yl)amino)-N-(6-(dimethylamino)pyridazin-3-yl)-6-((methyl-d3)amino)nicotinamide]: no less than 50 nM. On the same count and under the same terms, the same measure for `CC(=O)c1c(C)c2cnc(Nc3ccc(CN4CC5(CN(CC(=O)N6CC7(CC(Nc8nc(NC(C)C)ccc8C(=O)Nc8ccc(N(C)C)nn8)C7)C6)C5)C4)cn3)nc2n(C2CCCC2)c1=O` [CPD-508, 2-((2-(2-(6-((6-((6-acetyl-8-cyclopentyl-5-methyl-7-oxo-7,8-dihydropyrido[2,3-d]pyrimidin-2-yl)amino)pyridin-3-yl)methyl)-2,6-diazaspiro[3.3]heptan-2-yl)acetyl)-2-azaspiro[3.3]heptan-6-yl)amino)-N-(6-(dimethylamino)pyridazin-3-yl)-6-(isopropylamino)nicotinamide]: no less than 50 nM; for `CC(=O)c1c(C)c2cnc(Nc3ccc(N4CCN(C5CCN(C(=O)NC6CCC(Nc7nc(NC(C)C)ccc7C(=O)Nc7ccc(N(C)C)nn7)CC6)C5)CC4)cn3)nc2n(C2CCCC2)c1=O` (centres unmarked) [CPD-483, 2-((4-(3-(4-(6-((6-acetyl-8-cyclopentyl-5-methyl-7-oxo-7,8-dihydropyrido[2,3-d]pyrimidin-2-yl)amino)pyridin-3-yl)piperazin-1-yl)pyrrolidine-1-carboxamido)cyclohexyl)amino)-N-(6-(dimethylamino)pyridazin-3-yl)-6-(isopropylamino)nicotinamide]: no less than 50 nM.

On to `CC(=O)c1c(C)c2cnc(Nc3ccc(N4CCN(C5CCN(C(=O)CN6CC7(CC(Nc8nc(NC(C)C)ccc8C(=O)Nc8ccc(N(C)C)nn8)C7)C6)C5)CC4)cn3)nc2n(C2CCCC2)c1=O` (centres unmarked) [CPD-518, 2-((2-(2-(3-(4-(6-((6-acetyl-8-cyclopentyl-5-methyl-7-oxo-7,8-dihydropyrido[2,3-d]pyrimidin-2-yl)amino)pyridin-3-yl)piperazin-1-yl)pyrrolidin-1-yl)-2-oxoethyl)-2-azaspiro[3.3]heptan-6-yl)amino)-N-(6-(dimethylamino)pyridazin-3-yl)-6-(isopropylamino)nicotinamide], for which the IC50 in assay [1] was no more than 10 nM. With `[2H]C([2H])([2H])Nc1ccc(C(=O)Nc2ccc(N(C)C)nn2)c(NC2CC3(C2)CN(C(=O)CN2CCC4(CCN(Cc5ccc(Nc6ncc7c(C)c(C(C)=O)c(=O)n(C8CCCC8)c7n6)nc5)C4)C2)C3)n1` (centres unmarked) [CPD-519, 2-((2-(2-(7-((6-((6-acetyl-8-cyclopentyl-5-methyl-7-oxo-7,8-dihydropyrido[2,3-d]pyrimidin-2-yl)amino)pyridin-3-yl)methyl)-2,7-diazaspiro[4.4]nonan-2-yl)acetyl)-2-azaspiro[3.3]heptan-6-yl)amino)-N-(6-(dimethylamino)pyridazin-3-yl)-6-((methyl-d3)amino)nicotinamide], in assay [1], the concentration for half-maximal inhibition (IC50) is no more than 10 nM.

Take `COc1cccc(NC(=O)c2ccc(NC(C)C)nc2N[C@H]2CC[C@H](C(=O)N3CCC(N4CCN(c5ccc(Nc6ncc7c(C)c(C(C)=O)c(=O)n(C8CCCC8)c7n6)nc5)CC4)C3)CC2)n1` (stereo partly drawn) [CPD-522, 2-((trans-4-(3-(4-(6-((6-acetyl-8-cyclopentyl-5-methyl-7-oxo-7,8-dihydropyrido[2,3-d]pyrimidin-2-yl)amino)pyridin-3-yl)piperazin-1-yl)pyrrolidine-1-carbonyl)cyclohexyl)amino)-6-(isopropylamino)-N-(6-methoxypyridin-2-yl)nicotinamide]: in assay [1], the IC50 was no more than 10 nM. The same measure, in the same setting: the same measure for `[2H]C([2H])([2H])Nc1ccc(C(=O)Nc2cn(C)c(C3CC3)n2)c(N[C@H]2CC[C@H](C(=O)N3CCC(N4CCN(c5ccc(Nc6ncc7c(C)c(C(C)=O)c(=O)n(C8CCCC8)c7n6)nc5)CC4)C3)CC2)n1` (some centres unmarked) [CPD-480, 2-((4-(3-(4-(6-((6-acetyl-8-cyclopentyl-5-methyl-7-oxo-7,8-dihydropyrido[2,3-d]pyrimidin-2-yl)amino)pyridin-3-yl)piperazin-1-yl)pyrrolidine-1-carbonyl)cyclohexyl)amino)-N-(2-cyclopropyl-1-methyl-1H-imidazol-4-yl)-6-((methyl-d3)amino)nicotinamide]: 10 to 50 nM; for `COc1ccc(NC(=O)c2ccc(NC(C)C)nc2N[C@H]2CC[C@H](C(=O)N3CCC(N4CCN(c5ccc(Nc6ncc7c(C)c(C(C)=O)c(=O)n(C8CCCC8)c7n6)nc5)CC4)C3)CC2)nn1` (stereo partly drawn) [CPD-500, 2-((trans-4-(3-(4-(6-((6-acetyl-8-cyclopentyl-5-methyl-7-oxo-7,8-dihydropyrido[2,3-d]pyrimidin-2-yl)amino)pyridin-3-yl)piperazin-1-yl)pyrrolidine-1-carbonyl)cyclohexyl)amino)-6-(isopropylamino)-N-(6-methoxypyridazin-3-yl)nicotinamide]: no more than 10 nM. On the same count and under the same terms, the same measure for `CC(=O)c1c(C)c2cnc(Nc3ccc(CN4CC5(CN(CC(=O)N6CCC(Nc7nc(NC(C)C)ccc7C(=O)Nc7ccc(N(C)C)nn7)CC6)C5)C4)cn3)nc2n(C2CCCC2)c1=O` [CPD-509, 2-((1-(2-(6-((6-((6-acetyl-8-cyclopentyl-5-methyl-7-oxo-7,8-dihydropyrido[2,3-d]pyrimidin-2-yl)amino)pyridin-3-yl)methyl)-2,6-diazaspiro[3.3]heptan-2-yl)acetyl)piperidin-4-yl)amino)-N-(6-(dimethylamino)pyridazin-3-yl)-6-(isopropylamino)nicotinamide]: no less than 50 nM; for `CC(=O)c1c(C)c2cnc(Nc3ccc(N4CCN(C5CCN(C(=O)[C@H]6CC[C@H](Nc7cc(NC(C)C)ccc7C(=O)Nc7ccc(N(C)C)nn7)CC6)C5)CC4)cn3)nc2n(C2CCCC2)c1=O` (stereo partly drawn) [CPD-527, 2-((trans-4-(3-(4-(6-((6-acetyl-8-cyclopentyl-5-methyl-7-oxo-7,8-dihydropyrido[2,3-d]pyrimidin-2-yl)amino)pyridin-3-yl)piperazin-1-yl)pyrrolidine-1-carbonyl)cyclohexyl)amino)-N-(6-(dimethylamino)pyridazin-3-yl)-4-(isopropylamino)benzamide]: no more than 10 nM. For the compound `CC(=O)c1c(C)c2cnc(Nc3ccc(CN4CCN(CC(=O)NCC5CC(Nc6nc(NC(C)C)ccc6C(=O)Nc6ccc(N(C)C)nn6)C5)CC4)cn3)nc2n(C2CCCC2)c1=O` (centres unmarked) [CPD-493, 2-((3-((2-(4-((6-((6-acetyl-8-cyclopentyl-5-methyl-7-oxo-7,8-dihydropyrido[2,3-d]pyrimidin-2-yl)amino)pyridin-3-yl)methyl)piperazin-1-yl)acetamido)methyl)cyclobutyl)amino)-N-(6-(dimethylamino)pyridazin-3-yl)-6-(isopropylamino)nicotinamide], the 50% inhibitory concentration (IC50) in assay [1] is no more than 10 nM.
